Earlier results, collected in patent US6486186B2, “Thiazole compounds as cyclic AMP-specific phosphodiesterase inhibitors and method of using the same” (ICOS Corporation, priority 1999, dated 2002).

How the values were obtained:
[1] = in vivo
recombinant human PDE4 = conditions: literature value; read-out: reported IC50 with respect to inhibiting recombinant human PDE4

Row | Compound | emetic potential relative to the (+)-enantiomer (S-rolipram) [1] | IC50 (recombinant human PDE4)
1 | COc1ccc([C@@H]2CNC(=O)C2)cc1OC1CCCC1 (single isomer, unassigned) [(−)-enantiomer of rolipram] | about ten-fold more emetic | 
2 | COc1ccc(C2CNC(=O)C2)cc1OC1CCCC1 (stereo not drawn) [Rolipram] |  | ~200 nM
3 | COC(=O)N1CC(c2ccc(OC)c(OC3CCCC3)c2)C(C)(C(C)=O)C1 (stereo not drawn) [structural formula (I)] |  | ~2 nM
